Drawing on paper PMC5530453, “Anti-Parkinson Drug Biperiden Inhibits Enzyme Acetylcholinesterase” (BioMed Research International, 2017), this text covers Ki for one compound.

For the test, the target named is Acetylcholinesterase (AChE) (Electrophorus electricus, UniProt O42275). As to the kind of experiment: Ellman's assay with purchased electric eel AChE, Dixon plot. Format: biochemical.

The structures appear in SMILES notation.

One may read the Ki as the equilibrium dissociation constant of an inhibitor or competing ligand from its target.

Acetylcholinesterase (AChE), sequence (O42275 24-633): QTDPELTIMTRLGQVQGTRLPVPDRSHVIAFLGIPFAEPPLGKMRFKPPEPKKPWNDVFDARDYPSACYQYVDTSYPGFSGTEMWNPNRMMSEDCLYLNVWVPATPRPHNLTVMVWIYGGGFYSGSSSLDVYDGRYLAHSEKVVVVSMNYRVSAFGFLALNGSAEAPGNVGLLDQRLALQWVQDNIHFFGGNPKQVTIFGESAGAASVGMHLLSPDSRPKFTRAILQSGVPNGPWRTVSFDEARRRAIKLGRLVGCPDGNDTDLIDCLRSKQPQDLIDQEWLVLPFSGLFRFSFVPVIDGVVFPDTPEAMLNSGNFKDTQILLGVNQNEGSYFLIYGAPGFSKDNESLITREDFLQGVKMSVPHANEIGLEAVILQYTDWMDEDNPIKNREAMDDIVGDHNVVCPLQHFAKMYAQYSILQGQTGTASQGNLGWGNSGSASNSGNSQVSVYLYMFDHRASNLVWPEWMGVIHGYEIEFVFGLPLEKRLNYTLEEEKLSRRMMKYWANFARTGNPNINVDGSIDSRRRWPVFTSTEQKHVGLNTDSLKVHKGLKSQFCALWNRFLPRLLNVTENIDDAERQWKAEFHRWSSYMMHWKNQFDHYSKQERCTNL

`OC(CCN1CCCCC1)(c1ccccc1)C1CC2C=CC1C2` (stereo not drawn) [Biperiden, alpha-bicyclo[2.2.1]hept-5-en-2-yl-alpha-phenyl-1-piperidinepropanol]: the affinity corresponds to a Ki of 1110 ± 200 µM.
